Results taken from PMC3447791, “High Mannose-Binding Antiviral Lectin PFL from Pseudomonas fluorescens Pf0-1 Promotes Cell Death of Gastric Cancer Cell MKN28 via Interaction with α2-Integrin” (PLoS ONE, 2012).

Key:
PFL [1] = target: T1, PFL (Pseudomonas fluorescens, UniProt Q3KJ04); assay: CFG printed glycan microarray v5.[…], fluorescence; type: binding; settings: 10 μg/ml Alexa488-PFL; glycan immobilised on array
T1 construct: gene Pfl01_0508; full length, 132 residues, two homologous domains; pET101/D-TOPO with native stop codon, E. coli BL21 Star (DE3); Alexa Fluor 488 labelled for the array
T1 sequence (Q3KJ04 2-133): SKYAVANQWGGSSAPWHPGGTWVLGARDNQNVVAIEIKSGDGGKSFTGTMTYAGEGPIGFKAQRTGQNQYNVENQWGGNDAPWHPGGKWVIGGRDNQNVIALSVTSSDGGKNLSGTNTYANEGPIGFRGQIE

PFL [2] = target: T1, PFL; assay: CFG printed glycan microarray v5.[…], fluorescence; type: binding; settings: 10 μg/ml Alexa488-PFL; glycan immobilised on array; remark: listed apart in the source

Substance	binding potency relative to M6 glycan (216) (PFL [1])	RFU (PFL [2])
M7 glycan [compound 211]	~ 53%	
M8 glycan [compound 212]		40759 RFU
fucosylated counterpart of pentasaccharide core of N-glycan (50) [compound 485]		746 RFU
M6 glycan [compound 216]		43471 RFU
